Consider seven compounds from PubChem BioAssay (NCI).

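The compound was tested at five concentrations on cells cultured in 96-well plates, with a 48-hour exposure period. Here, GI50 denotes the concentration required for 50% inhibition of growth. Definition used: TGI = concentration required for complete inhibition of growth.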

Among the test systems are MALME-3M melanoma; A549 NSCLC; SF-295 CNS; SK-MEL-5 melanoma; SK-OV-3 ovarian; HCT-15 colon; UACC-257 melanoma; MDA-MB-435; M14 melanoma; OVCAR-5 ovarian.
Holding throughout (assay): inhibition of tumour cell growth, NCI panel, 48 h

Consider `O=c1[nH]cnc2c1nnn2CCCCCCCCCCCCn1nnc2c(=O)[nH]cnc21`, for which the TGI was more than 100 µM in the experiment with MALME-3M melanoma; more than 100 µM with A549 NSCLC; 48.4 µM in the experiment with SF-295 CNS; more than 100 µM in the experiment on SK-MEL-5 melanoma; 38.5 µM in the experiment with SK-OV-3 ovarian; more than 100 µM in the experiment with HCT-15 colon. Moreover, the TGI with UACC-257 melanoma, with MDA-MB-435, in the experiment with M14 melanoma and with OVCAR-5 ovarian was more than 100 µM in each case.
`Cn1cc(C2=C(c3cn(CCCCCSC(=N)N)c4ccccc34)C(=O)NC2=O)c2ccccc21`: the GI50 is 4.25 µM with MALME-3M melanoma; 4.4 µM in the experiment on A549 NSCLC; 1.76 µM in the experiment on SF-295 CNS; 3.28 µM with SK-MEL-5 melanoma; 2.99 µM in the experiment on SK-OV-3 ovarian; 3.8 µM with HCT-15 colon. In addition, the GI50 was 4.01 µM in the experiment with UACC-257 melanoma, 1.06 µM with MDA-MB-435, 3.23 µM in the experiment with M14 melanoma and 4.48 µM in the experiment with OVCAR-5 ovarian. Besides, the TGI in the experiment on MALME-3M melanoma is 8.08 µM; with A549 NSCLC, 8.65 µM; in the experiment on SF-295 CNS, 5.38 µM; with SK-MEL-5 melanoma, 6.67 µM; in the experiment on SK-OV-3 ovarian it was 6.16 µM; in the experiment with HCT-15 colon it was 8.03 µM. In addition, the TGI in the experiment on UACC-257 melanoma is 7.47 µM; with MDA-MB-435, 4.07 µM; in the experiment with M14 melanoma it was 6.87 µM; with OVCAR-5 ovarian, 8.26 µM.
`COc1cc2c3c(n(C)c(=O)c2cc1OC)-c1ccc(C#N)cc1C3=O`: the GI50 was more than 100 µM in the experiment on MALME-3M melanoma; more than 100 µM in the experiment on A549 NSCLC; 73.7 µM with SF-295 CNS; more than 100 µM in the experiment on SK-MEL-5 melanoma; more than 100 µM in the experiment with SK-OV-3 ovarian; more than 100 µM with HCT-15 colon. The GI50 with UACC-257 melanoma, in the experiment on MDA-MB-435, in the experiment with M14 melanoma and with OVCAR-5 ovarian was more than 100 µM each time. Besides, the TGI in the experiment on MALME-3M melanoma, in the experiment with A549 NSCLC, in the experiment on SF-295 CNS, in the experiment on SK-MEL-5 melanoma, in the experiment on SK-OV-3 ovarian and with HCT-15 colon was more than 100 µM throughout. For the same compound, the TGI in the experiment on UACC-257 melanoma, in the experiment on MDA-MB-435, in the experiment with M14 melanoma and in the experiment with OVCAR-5 ovarian was more than 100 µM each time.
For `C=CC(=O)N1CC2(CC(n3nc(-c4ccc5c(cnn5C)c4)c(-c4c(Cl)c(C)cc5[nH]ncc45)c3C)C2)C1`, the GI50 with MALME-3M melanoma was 2.44 µM; in the experiment with A549 NSCLC it was 3.05 µM; with SF-295 CNS, 2.16 µM; in the experiment on SK-MEL-5 melanoma, 1.61 µM; with SK-OV-3 ovarian, 5.17 µM; in the experiment on HCT-15 colon, 1.54 µM. The GI50 with UACC-257 melanoma was 2.16 µM; in the experiment with MDA-MB-435, 2.72 µM; with M14 melanoma it was 2.88 µM; with OVCAR-5 ovarian, 4.03 µM. Moreover, the TGI with MALME-3M melanoma was 5.09 µM; with A549 NSCLC, 12.5 µM; with SF-295 CNS, 5.43 µM; with SK-MEL-5 melanoma, 3.02 µM; in the experiment on SK-OV-3 ovarian, 18.2 µM; with HCT-15 colon, 3.05 µM. Besides, the TGI with UACC-257 melanoma stood at 6.57 µM; in the experiment on MDA-MB-435 it was 7.65 µM; with M14 melanoma it was 11.2 µM; in the experiment on OVCAR-5 ovarian, 13.9 µM.
Consider `O=C(Nc1nc2ccccc2s1)Nc1ccc([N+](=O)[O-])cc1Cl`, for which the GI50 with MALME-3M melanoma is 2.82 µM; in the experiment with A549 NSCLC, 2.17 µM; in the experiment with SF-295 CNS it was 3.31 µM; with SK-MEL-5 melanoma it was 7.3 µM; with SK-OV-3 ovarian it was 8.52 µM; with HCT-15 colon it was 3.05 µM. The GI50 was 5.62 µM with UACC-257 melanoma, 3.56 µM in the experiment on MDA-MB-435, 7.15 µM with M14 melanoma and 10.4 µM in the experiment with OVCAR-5 ovarian. The TGI with MALME-3M melanoma came to 11.1 µM; in the experiment with A549 NSCLC, 5.7 µM; in the experiment with SF-295 CNS, 15.8 µM; in the experiment on SK-MEL-5 melanoma, 22.1 µM; with SK-OV-3 ovarian it was 22.2 µM; in the experiment on HCT-15 colon it was 13 µM. Moreover, the TGI with UACC-257 melanoma worked out at 14.2 µM; with MDA-MB-435, 14.2 µM; with M14 melanoma it was 20.7 µM; in the experiment on OVCAR-5 ovarian it was 25.7 µM.
For the compound `CC(=O)[O][Hg][c]1c(C)c(C)cc(C)c1C`, the GI50 in the experiment on MALME-3M melanoma was 1.33 µM; in the experiment with A549 NSCLC, 5.55 µM; in the experiment on SF-295 CNS, 1.87 µM; with SK-MEL-5 melanoma it was 1.8 µM; with SK-OV-3 ovarian it was 3.63 µM; in the experiment with HCT-15 colon, 1.49 µM. Further, the GI50 is 1.36 µM in the experiment on UACC-257 melanoma, 1.27 µM with MDA-MB-435, 1.36 µM with M14 melanoma and 1.94 µM in the experiment with OVCAR-5 ovarian. Also, the TGI in the experiment with MALME-3M melanoma amounted to 2.75 µM; in the experiment on A549 NSCLC, 15 µM; in the experiment on SF-295 CNS it was 4.14 µM; in the experiment on SK-MEL-5 melanoma it was 4.66 µM; in the experiment with SK-OV-3 ovarian, 6.96 µM; in the experiment on HCT-15 colon, 3.88 µM. The TGI with UACC-257 melanoma was 2.73 µM; in the experiment on MDA-MB-435, 2.74 µM; with M14 melanoma it was 2.88 µM; in the experiment with OVCAR-5 ovarian, 3.84 µM.
For `CN(CC(=O)N(Cc1ccc(C2CCCCC2)cc1)c1ccc(C(=O)O)cc1)S(=O)(=O)c1c(F)c(F)c(F)c(F)c1F`, the GI50 with MALME-3M melanoma was 1.7 µM; in the experiment on A549 NSCLC, 6.59 µM; with SF-295 CNS it was 15.2 µM; in the experiment on SK-MEL-5 melanoma, 1.84 µM; with SK-OV-3 ovarian it was 1.93 µM; in the experiment on HCT-15 colon, 1.74 µM. For the same compound, the GI50 with UACC-257 melanoma is 2.01 µM; with MDA-MB-435, 1.75 µM; with M14 melanoma it was 1.91 µM; in the experiment on OVCAR-5 ovarian it was 10.8 µM. The TGI with MALME-3M melanoma stood at 3.64 µM; with A549 NSCLC, 21.6 µM; with SF-295 CNS, 29.4 µM; in the experiment on SK-MEL-5 melanoma, 3.58 µM; in the experiment on SK-OV-3 ovarian, 3.8 µM; with HCT-15 colon, 3.36 µM. Besides, the TGI in the experiment with UACC-257 melanoma was 3.71 µM; in the experiment on MDA-MB-435, 3.19 µM; with M14 melanoma, 3.59 µM; with OVCAR-5 ovarian, 23.8 µM.
